# Measurements from patent US9375436B2, “Androgen treatment in females” (priority 2004, dated 2016).
# Values joined by “and” are separate entries in the source; they are usually repeats but may differ in a detail not shown here. Identical values can stand only once.
# Key:
# [1] = system: person with evidence of decreased ovarian reserve; conditions: human, in vivo
# [2] = system: women with diminished ovarian function; test: Case control study of clinical pregnancy with DHEA supplementation (Example 7); format: in vivo, human
# Protocol: A case control study of 190 women over 30 years old with diminished ovarian function were studied between 1999 and December 2005. The study group included 89 patients with a mean age of about 41.6 who used supplementation of about 75 mg daily of oral, micronized DHEA for up to four months prior to entry into IVF. […] The primary outcome was clinical pregnancy after the patient's initial visit.
# (§1) Ovarian stimulation was identical for study and control groups and consisted of microdose agonist flare, followed by maximal dosage gonadotropin stimulation, using about 300-450 IU of FSH and about 150 IU of HMG. Study patients received DHEA continuously until a positive pregnancy test was obtained or until the patient dropped out of treatment.
# In an additional study, a retrospective analysis of a 190 women with diminished ovarian function above 30 years old, who were treated between 1999 and December 2005 was completed to assess the impact of DHEA supplementation on the time interval to the establishment of pregnancy.
# A prequalification for each patient's diagnosis of diminished ovarian function was either a sub-diagnosis of premature ovarian aging (POA) or a sub-diagnosis of diminished ovarian reserve (DOR). POA was, in turn, defined as baseline follicle stimulating hormone (b-FSH), on Day 2/3 of a cycle as <12 mIU/ml, but exceeding the 95% CI of the mean value for the patient's age group.
# Specifically, this meant b-FSH≧7.4 mIU/ml at age 30-34 years and ≧8.6 mIU/ml at age≧35 years. DOR, in turn, was defined as b-FSH≧12 mIU/ml and/or a baseline estradiol level≧75 pg/ml. 49 patients were confirmed with POA and 52 patients were confirmed with DOR, creating a control group of 101 women. Because of potential impending loss of ovarian function in the control group women, the control group women were treated with IVF as soon as possible.
# During the time studied, the study group consisted of 89 patients, with diminished ovarian function (POA 24, DOR 65). Each person in the study group was placed on DHEA supplementation. The DHEA supplementation included administering about 25 mg of (pharmaceutical grade) micronized DHEA, three times daily, for up to about four months (mean 3.8±0.3 months). […] This delay of IVF treatment allowed the possibility of spontaneously conceived pregnancies.
# as §1, with “comprised” for “consisted of”, “treatment. DHEA and DHEAS levels were monitored monthly, and patients were interviewed at each visit about adverse reactions to DHEA supplementation.” for “treatment.”
# In order to assess the impact of DHEA supplementation on time interval to the establishment of pregnancy, this study was designed as a life-table analysis, measuring not only total pregnancy rates but also the time between initial presentation and end of last treatment intervention.
# Each recorded clinical pregnancy, defined as positive fetal cardiac activity on ultrasound examination after 6 weeks, was recorded as a positive outcome. Patients who continued treatments beyond the study period or stopped treatments were considered right censored data at the end of the study period, or at treatment cessation, respectively.
# A Cox regression analysis was used to evaluate time-to-event. The model that we used stratified for level of ovarian reserve (POA and DOR) and adjusted for age, day 3 FSH, fertility treatments (none, Intrauterine Insemination and controlled ovarian hyperstimulation (IUI/COH), or IVF) and race/ethnicity. A trend in pregnancy rates over months of DHEA exposure with an interaction term for time and DHEA months of exposure was tested. SPSS for Windows, Standard version 10.0.7 (SPSS Co. Chicago, Ill.) was utilized for data analysis. Continuous outcomes are presented as mean±1 standard error. […]
# DOR patients = test: Pregnancy outcome at various AMH levels under DHEA supplementation; format: in vivo, human
# Description: Another study from our center further supports these conclusions (FIG. 22). FIG. 22 is a graph showing spontaneous pregnancy loss in spontaneous and IVF pregnancies at various AMH levels. The figure depicts at various AMH levels in the left column IVF pregnancies (IVF), as previously reported (26), and in the right column spontaneously conceived pregnancies (SP). Each column represents 100% of all pregnancies established, separated for live births (black section), voluntary termination of pregnancy (TOP; usually for aneuploidy) and spontaneous miscarriages (SAB).
# In that study (FIG. 22), we investigated live birth rates after IVF at extremely low anti-Müllerian hormone (AMH) levels and were surprised how low miscarriage rates were between non-detectable levels of AMH and 0.4 ng/mL. Losses then increased between AMH 0.41-1.05 ng/mL to over 50 percent, the expected rate in DOR patients, only to fall, once again, to very low levels above AMH 1.05 ng/mL. […]
# AMH<1.05 ng/mL represents more severe DOR. […] Chances of clinical pregnancies, miscarriages, terminations of pregnancy, and viable deliveries were then determined among severe DOR patients, depending on AMH levels (below detection, <0.1 ng/mL, 0.1-0.4 ng/mL, 0.41-0.8 ng/mL, 0.81-1.05 ng/mL) and with milder DOR (>1.06 ng/mL). […]
# [3] = DHEA group, intrauterine insemination, no IVF
# [4] = DHEA group, no other treatment than DHEA
structure (smiles),measurement,setting,value
"C[C@]12CC[C@H](O)CC1=CC[C@@H]1[C@@H]2CC[C@]2(C)C(=O)CC[C@@H]12 [DHEA, Dehydroepiandrosterone]",(log) peak E2 increase,[1],0.47±0.06
same,aneuploid embryos amongst 10 embryos (PGD),[1],nine
same,average embryo cell count,[1],6.83±1.37 and 7.2±1.15
same,cryopreservable embryo yield increase,[1],1.4±0.14 embryos per cycle
same,cryopreservable embryos,[1],11
same,embryo morphology,[1],3.6±0.5 and 3.7±0.5
same,embryos in a cycle,[1],9 and 10 and 11
same,embryos of high enough quality to undergo cryopreservation,[1],49
same,embryos produced,[1],16
same,oocyte yield increase,[1],2.5±0.34 oocytes per cycle
same,oocytes in a cycle,[1],13 and 16 and 19
same,oocytes retrieved,[1],17
same,total viable embryos cryopreserved,[1],50
same,oocytes produced,[1]; po,19
same,proportional hazards ratio for clinical pregnancy relative to controls (HR),"[2]; Cox regression, 95% CI 1.2 to 11.8",3.8
same,Implantation (FH/Embryos trans),[2]; DHEA group,(11.4%)
same,Implantation (FH/Embryos trans) (n/N),[2]; DHEA group,13/101
same,Miscarriage (Per clinical Pregnancy) (n/N),[2]; DHEA group,5 of 25 and 5/25
same,Normal Day 3 embryos,[2]; DHEA group,2.4±0.03 and 2.4 ± 0.3
same,Oocytes,[2]; DHEA group,3.9 ± 0.4
same,Positive hCG (>25 mIU/ml),[2]; DHEA group,(30%)
same,Positive hCG (>25 mIU/ml) (n/N),[2]; DHEA group,26/88
same,Transferred embryos,[2]; DHEA group,2.1±0.2
same,pregnancies established spontaneously (no IVF treatment) out of the 25,[2]; DHEA group,12
same,Clinical Pregnancy (n/N),"[2]; DHEA group, all 89 patients",25 of 89 and 25/89
same,"Clinical Pregnancy, IUI/COH",[2]; [3],(66.7%)
same,"Clinical Pregnancy, IUI/COH (n/N)",[2]; [3],6 of 9 and 6/9
same,"Clinical Pregnancy, No Treatment",[2]; [4],(35.3%)
same,"Clinical Pregnancy, No Treatment (n/N)",[2]; [4],6 of 16 and 6/16
same,"Clinical Pregnancy, IVF (n/N)","[2]; DHEA group, patients reaching IVF",13/64
same,Cancellation (IVF) (n/N),"[2]; DHEA group, about 25 mg three times daily, 3.8 ± 0.3 months",9/63
same,decrease of the miscarriage rate,[2]; DHEA versus control,about 44%
same,increase of the percentage of clinical pregnancies,[2]; DHEA versus control,about 157%
same,mean DHEA and DHEAS levels at cycle day 2,[2]; approximately two months after initiation of treatment,in the low normal ranges
same,"proportional hazards estimation of pregnancy (HR), extended Cox models","[2]; correction for time dependent variables, 95% CI 1.6 to 14.2",4.8
same,chance of live birth per treatment cycle,"DOR patients; DOR patients under DHEA supplementation, up to AMH 1.05 ng/mL",approximately 5%
same,pregnancy chance per IVF cycle,"DOR patients; under DHEA supplementation, absence of detectable AMH",~5%
